Measurements from patent US20210139844A1, “REPROGRAMMING FIBROBLASTS TO RETINAL CELLS” (UNIVERSITY OF NORTH TEXAS HEALTH SCIENCE CENTER, priority 2017, published 2021).
“Also recorded” adds a separate entry of the source.

Legend:
[1] = tested on: Nrl-GFP MEFs; assay: Chemical reprogramming of Nrl-GFP MEFs to photoreceptor like cells (Nrl-GFP reporter); assay type: cell-based, mouse; details: for effect on reprogramming of removing the small molecule from the cocktail: small molecule subtracted from cocktail
From the text: Identification of small molecules for derivation of photoreceptor-like cells (CiPPC). […] The inventors have exploited this phenomenon to find out additional small molecules those might be important for the determination of retinal neuron specific fate. An array of small molecule along with different medium compositions and time points has been tested as possible candidates. Mouse Embryonic Fibroblasts (MEFs) from a photoreceptor specific reporter mouse (Nrl-GFP) are used as starting cells for the reprogramming studies (Akimoto et al., PNAS 103:3890-95, 2006). If converted to photoreceptors, these MEFs would have GFP expression from the Nrl promoter. […] This conversion requires three additional factors Sonic Hedgehog (S), Taurine (T) and Retinoic acid (R) introduced on day 8 (d8) (FIG. 1A and FIG. 1B). […] The inventors have tested the importance of each small molecule in the reprogramming process by using Nrl-GFP MEFs as starting cells.
All small molecules diluted in DMSO according to manufacturer's instruction. On day 0 about 35000 MEFs were seeded in each well of a 24 well plate (0.1% gelatin coated for O/N). At day 1 change the medium with photoreceptor induction medium (PIM) with V (0.5 mM), C (4.8 μM), R (2 μM) F (10 βM). On day 3 change the medium (PIM) with V, C, R, F plus IWR1 (I, 10 βM). Change the medium (PIM) with VCRFI on d5 and d6. On day 8 add Sonichedgehog (S, 3 nM), taurine molecules and factors. Finally on day 11 cells with GFP expression were observed. For the differentiation replace the medium with photoreceptor differentiation medium (PDM) and keep them up to d15 to d16. […] Cells were fixed or analyzed on day 7.

[2] = tested on: mitochondrial ROS; assay: Measurement of mitochondrial ROS (MitoSox staining, fluorometry); assay type: cell-based, mouse
From the text: Mitochondrial ROS activates NF-kB which controls CiPPC reprogramming by retrograde signaling. Next the inventors investigated the reasons behind NFkβ activation. Known inducers of NF-kB are highly variable including TNFα, LPS, Ionizing radiation and mitochondrial ROS (Formentini et al., Mol Cell 45:731-42, 2012; Andreakos et al., Blood 103:2229-37, 2004). […] So the inventors contemplated that mitochondrial ROS generated by small molecule treatment may activate NF-kB. […] The inventors found increased accumulation of mitochondrial ROS indicator mitosox during reprogramming starting from d5 compared to control MEFs (FIG. 6A, FIG. 6B and FIG. 6C). To measure the importance of mROS during chemical reprogramming, conversion experiments were performed in the presence of mitochondrial ROS scavenger, mitotempo.
Measurement of mitochondrial ROS. Mitochondrial ROS was detected and quantified. […] Cells were then washed twice with PBS and fluorescence has been monitored with a microplate reader set to 510 nm excitation (Ex bandwidth: 10 nm) and 595 nm emission (Em bandwidth 35 nm) wavelengths. mROS generation was also micrographed by Leica fluorescence microscope an quantified in Leica Application Suite X Software. […] Average intensity within each ROI was measured and exported to Excel data sheet. Average change in fluorescence was calculated for each type of cells. […]

[3] = tested on: HepG2 cells; details: treated for several days; cited from earlier work
[4] = tested on: HFL1-Nrl-DsRed cells; assay: Chemical reprogramming of human HFL1-Nrl-DsRed fibroblasts to photoreceptor like cells; assay type: cell-based; details: added during reprogramming
From the text: Identification of small molecules for derivation of photoreceptor-like cells (CiPPC). To identify small molecules responsible for retinal neuron specific fate, the inventors followed previous studies describing a set of small molecules that can convert fibroblasts into neurons (Hu et al., Cell stem cell 17:204-12, 2015; Zhang et al., Cell stem cell 17:735-47, 2015; Fu et al., Cell research 25, 2015; Cheng et al., Cell research 25:1269-72, 2015). Four out of six small molecules described in these studies, Valproic acid (V), CHIR(C), Repsox (R) and Forskolin(F), are able to convert fibroblast cells into mixed progenitor stage (Fu et al., Cell research 25, 2015). The inventors have exploited this phenomenon to find out additional small molecules those might be important for the determination of retinal neuron specific fate. An array of small molecule along with different medium compositions and time points has been tested as possible candidates. Mouse Embryonic Fibroblasts (MEFs) from a photoreceptor specific reporter mouse (Nrl-GFP) are used as starting cells for the reprogramming studies (Akimoto et al., PNAS 103:3890-95, 2006). If converted to photoreceptors, these MEFs would have GFP expression from the Nrl promoter. […] This conversion requires three additional factors Sonic Hedgehog (S), Taurine (T) and Retinoic acid (R) introduced on day 8 (d8) (FIG. 1A and FIG. 1B). Human fibroblasts (HFL1, ATCC CCL153) can also be converted into photoreceptor like cells by these small molecules. The inventors first generated a HFL-1 cell line having a lentivirally transduced DsRed reporter downstream of Nrl promoter. Drug selected HFL1-Nrl-DsRed cells were used for the reprogramming by the previously described mouse specific protocol with some modifications (FIG. 1C). Round shaped and neuron like Nrl promoter driven DsRed positive cells were evident starting from d6 to d8 (FIG. 1D). […]
All small molecules diluted in DMSO according to manufacturer's instruction. […] Cells were fixed or analyzed on day 7.

Row | Molecule | effect on reprogramming of removing the small molecule from the cocktail [1] | morphology of converted human photoreceptor like cells [4] | also measured
1 | Cc1cnc(-c2cnc(NCCNc3ccc(C#N)cn3)nc2-c2ccc(Cl)cc2Cl)[nH]1 [CHIR, 6-[2-[[4-(2,4-dichlorophenyl)-5-(5-methyl-1H-imidazol-2-yl)pyrimidin-2-yl]amino]ethylamino]-pyridine-3-carbonitrile] | worst effect on reprogramming process | – | –
2 | O=C(Nc1cccc2cccnc12)c1ccc(N2C(=O)[C@@H]3[C@H](C2=O)[C@@H]2C=C[C@H]3C2)cc1 [IWR1, N-(Quinolin-8-yl)-4-(exo-4-aza-3,5-dioxotricyclo[5.2.1.02,6]oct-8-en-4-yl)benzamide] | worst effect on reprogramming process; also recorded: reduced the reprogramming efficiency | – | mROS generation in reprogramming without the small molecule ([2]; d8): did not show increase in mROS generation; conversion of GFP negative MEFs into GFP+ photoreceptor like cells ([1]; in presence of VCRF, d10 to d11, S, T, R introduced on d8): can covert GFP negative MEFs into GFP^+ positive round shaped photoreceptor like cells
3 | Cc1cccc(-c2n[nH]cc2-c2ccc3ncccc3n2)n1 [Repsox, 2-(3-(6-Methylpyridin-2-yl)-1H-pyrazol-4-yl)-1,5-naphthyridine] | worst effect on reprogramming process | – | –
4 | Oc1nc(-c2ccc(C(F)(F)F)cc2)nc2c1CSCC2 [XAV939] | – | – | axin stabilization [3]: can also stabilize the axin at cytosol
5 | CC1(C)CC(NC(=O)C[P+](c2ccccc2)(c2ccccc2)c2ccccc2)CC(C)(C)N1[O] [mitotempo] | – | – | mROS generation upon scavenger treatment ([2]; mitoSox staining, fluorometric analysis): decrease of mROS generation; yield of reprogrammed cells ([1]; conversion in presence of mROS scavenger, printed as 'significantly decreased yield ... (20%)'): 20%; number of Nrl-GFP+ reprogrammed cells at different concentrations ([1]; data not shown): dose dependent relationship
6 | NT3: factor added during human cell reprogramming (protein, UniProt P20783 139-257, looked up, Neurotrophin-3, factor added during human cell reprogramming) Neurotrophin-3: YAEHKSHRGEYSVCDSESLWVTDKSSAIDIRGHQVTVLGEIKTGNSPVKQYFYETRCKEARPVKNGCRGIDDKHWNSQCKTSQTYVRALTSENNKLVGWRWIRIDTSCVCALSRKIGRT | – | helped these converted human photoreceptor like cells to have a healthy morphology | –
7 | BDNF: factor added during human cell reprogramming (protein, UniProt P23560 129-247, looked up, Neurotrophic factor BDNF, factor added during human cell reprogramming) Neurotrophic factor BDNF: HSDPARRGELSVCDSISEWVTAADKKTAVDMSGGTVTVLEKVPVSKGQLKQYFYETKCNPMGYTKEGCRGIDKRHWNSQCRTTQSYVRALTMDSKKRIGWRFIRIDTSCVCTLTIKRGR | – | helped these converted human photoreceptor like cells to have a healthy morphology | –
8 | GDNF: factor added during human cell reprogramming (protein, UniProt P39905 78-211, looked up) Glial cell line-derived …: SPDKQMAVLPRRERNRQAAAANPENSRGKGRRGQRGKNRGCVLTAIHLNVTDLGLGYETKEELIFRYCSGSCDAAETTYDKILKNLSRNRRLVSDKVGQACCRPIAFDDDLSFLDDNLVYHILRKHSAKRCGCI | – | helped these converted human photoreceptor like cells to have a healthy morphology | –
